Results reported in patent publication US20250171433A1, “A1H-BENZO[C][1,2]THIADIAZINE-2,2-DIOXIDES BEARING HETEROCYCLIC LINKERS AS SELECTIVE HISTONE DEACETYLASE 6 INHIBITORS” (Georgetown University, priority 2022, published 2025).
Where two headings read alike, the source gives them in different places.

Experiments:
[1] = biological target: T1, hHDAC6 (Homo sapiens, UniProt Q9UBN7); assay: HDAC enzyme activity inhibition assay, HDAC6; assay type: biochemical; conditions: duplicate, performed by DRC; read-out: potency at hHDAC6
T1 construct: host or cells: baculovirus / Sf9 cells
T1 sequence (Q9UBN7 1-1215): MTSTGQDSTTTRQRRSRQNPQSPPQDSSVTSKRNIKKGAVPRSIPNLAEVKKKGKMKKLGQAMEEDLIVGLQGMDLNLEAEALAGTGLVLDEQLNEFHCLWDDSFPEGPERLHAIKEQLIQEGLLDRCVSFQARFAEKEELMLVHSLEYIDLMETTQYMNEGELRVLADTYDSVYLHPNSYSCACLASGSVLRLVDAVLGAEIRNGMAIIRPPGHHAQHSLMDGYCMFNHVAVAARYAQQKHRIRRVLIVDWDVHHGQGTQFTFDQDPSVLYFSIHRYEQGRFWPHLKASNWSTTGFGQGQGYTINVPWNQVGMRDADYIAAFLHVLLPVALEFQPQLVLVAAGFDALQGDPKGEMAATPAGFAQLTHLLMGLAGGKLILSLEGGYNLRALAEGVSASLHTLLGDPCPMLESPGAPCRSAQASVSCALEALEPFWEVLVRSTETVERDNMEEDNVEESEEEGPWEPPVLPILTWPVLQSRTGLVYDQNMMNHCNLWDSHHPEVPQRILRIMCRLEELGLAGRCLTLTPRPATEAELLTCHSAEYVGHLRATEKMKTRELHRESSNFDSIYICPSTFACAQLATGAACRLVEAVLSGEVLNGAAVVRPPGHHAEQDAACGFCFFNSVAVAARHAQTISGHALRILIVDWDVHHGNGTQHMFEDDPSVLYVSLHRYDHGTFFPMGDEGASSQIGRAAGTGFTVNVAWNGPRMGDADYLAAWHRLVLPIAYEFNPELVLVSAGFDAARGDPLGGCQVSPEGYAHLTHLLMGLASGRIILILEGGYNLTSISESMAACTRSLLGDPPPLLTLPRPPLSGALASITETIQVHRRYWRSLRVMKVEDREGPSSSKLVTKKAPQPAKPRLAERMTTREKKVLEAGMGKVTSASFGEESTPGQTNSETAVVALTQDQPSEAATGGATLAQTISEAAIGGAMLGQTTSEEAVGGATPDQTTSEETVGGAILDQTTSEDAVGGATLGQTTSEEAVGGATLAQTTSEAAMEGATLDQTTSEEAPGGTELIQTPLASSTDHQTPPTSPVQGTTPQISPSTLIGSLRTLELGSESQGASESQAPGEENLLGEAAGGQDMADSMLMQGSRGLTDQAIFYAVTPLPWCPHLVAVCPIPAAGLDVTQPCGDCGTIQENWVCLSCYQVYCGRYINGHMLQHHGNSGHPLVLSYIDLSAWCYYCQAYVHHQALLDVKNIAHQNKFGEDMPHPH
Method: (§1) The effectiveness, or potency, of a present HDAC6I with respect to inhibiting the activity of an HDAC is measured by an IC50 value. The quantitative IC50 value indicates the concentration of a particular compound that is needed to inhibit the activity of an enzyme by 50% in vitro. Stated alternatively, the IC50 value is the half maximal (50%) inhibitory concentration of a compound tested using a specific enzyme, e.g., HDAC, of interest.
(§2) The HDAC1, 2, 4, 5, 6, 7, 8, 9, 10, and 11 assays used isolated recombinant human protein; HDAC3/NcoR2 complex was used for the HDAC3 assay. Substrate for HDAC1, 2, 3, 6, 10, and 11 assays is a fluorogenic peptide from p53 residues 379-382 (RHKKAc); substrate for HDAC8 is fluorogenic diacyl peptide based on residues 379-382 of p53 (RHKAcKAc). Acetyl-Lys(trifluoroacetyl)-AMC substrate was used for HDAC4, 5, 7, and 9 assays. Compounds were dissolved in DMSO and tested in 10-dose IC50 mode with 3-fold serial dilution starting at 30 μM. […]
(§3) All IC50 values are automatically calculated using the GraphPad Prism version 5 and Equation of Sigmoidal dose-response (variable slope): […]
(§4) HDAC Activity Assays: HDAC assay is performed using fluorescently-labeled acetylated substrate, which comprises an acetylated lysine side chain. […] HDACs 1 and 6 were expressed as full length fusion proteins. […]

[2] = biological target: T2, HDAC1 (Homo sapiens, UniProt Q13547); assay: HDAC enzyme activity inhibition assay, HDAC1; assay type: biochemical; conditions: DRC
T2 construct: host or cells: baculovirus / Sf9 cells
T2 sequence (Q13547 whole entry): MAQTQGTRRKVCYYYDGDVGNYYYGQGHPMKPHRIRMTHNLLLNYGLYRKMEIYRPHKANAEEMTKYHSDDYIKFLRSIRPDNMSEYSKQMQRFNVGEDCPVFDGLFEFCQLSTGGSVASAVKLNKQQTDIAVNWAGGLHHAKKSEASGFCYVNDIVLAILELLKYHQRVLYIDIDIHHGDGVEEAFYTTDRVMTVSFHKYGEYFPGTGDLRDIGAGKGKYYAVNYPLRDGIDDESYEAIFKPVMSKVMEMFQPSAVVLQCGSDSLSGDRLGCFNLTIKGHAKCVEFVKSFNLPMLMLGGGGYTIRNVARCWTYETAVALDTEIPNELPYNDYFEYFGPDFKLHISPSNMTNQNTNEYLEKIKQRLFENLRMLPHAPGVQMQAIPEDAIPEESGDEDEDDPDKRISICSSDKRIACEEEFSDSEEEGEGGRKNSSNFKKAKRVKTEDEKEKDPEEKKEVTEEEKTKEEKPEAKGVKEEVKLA
Method: as §1, §2, §3, §4

[3] = tested on: other HDAC subtypes; assay: Inhibition of other HDAC subtypes at a single concentration; assay type: biochemical, human
Method: The HDAC1, 2, 4, 5, 6, 7, 8, 9, 10, and 11 assays used isolated recombinant human protein; HDAC3/NcoR2 complex was used for the HDAC3 assay. Substrate for HDAC1, 2, 3, 6, 10, and 11 assays is a fluorogenic peptide from p53 residues 379-382 (RHKKAc); substrate for HDAC8 is fluorogenic diacyl peptide based on residues 379-382 of p53 (RHKAcKAc). Acetyl-Lys(trifluoroacetyl)-AMC substrate was used for HDAC4, 5, 7, and 9 assays. Compounds were dissolved in DMSO and tested in 10-dose IC50 mode with 3-fold serial dilution starting at 30 μM. Control compound trichostatin A (TSA) was tested in a 10-dose IC50 mode with 3-fold serial dilution starting at 5 μM. IC50 values were extracted by curve-fitting the dose/response slopes. Assays were performed in duplicate, and IC50 values are an average of data from both experiments.

[4] = Kinetic solubility; assay type: physicochemical
[5] = Permeability and efflux; assay type: in vitro ADME
[6] = Clearance in human microsomes; assay type: in vitro ADME
[7] = Clearance in mouse microsomes; assay type: in vitro ADME
[8] = Free fraction in mouse plasma; assay type: in vitro ADME
[9] = Free fraction in human plasma; assay type: in vitro ADME
[10] = Chemical stability at pH 7.4 and 2; assay type: physicochemical
[11] = Mice iv PK; conditions: mouse, in vivo
[12] = Oral PK study with brain and sciatic nerve exposure; assay type: in vivo, mice
[13] = Reported functional activity
[14] = mouse, plasma, oral PK study, gavage

IC50 [1]: 29 nM | selectivity against HDAC1 [2]: full selectivity | kinetic solubility [4]: high | efflux [5]: low | permeability [5]: high | clearance in human microsomes [6]: low | clearance in mouse microsomes [7]: higher | microsomal CLint ([7]; mouse, compared with set criteria in Schedule B, species not given): > 50 µL/min/mg | free fraction in mouse plasma [8]: high | free fraction in human plasma [9]: high | chemical stability at pH 2 ([10]; pH 2): chemically stable | chemical stability at pH 7.4 ([10]; pH 7.4): chemically stable | clearance [11]: 44.9 mL/min/kg | Kp at 1 h ([12]; mouse, brain and plasma, oral, @1 h, read-out: Brain/Plasma ratio): 0.8 | Kp at 4 h ([12]; mouse, brain and plasma, oral, @4 h, read-out: Brain/Plasma ratio): 1.2 | concentrations detected in the brain and the sciatic nerve ([12]; mouse, in vivo): moderate | bioavailability ([12]; mouse, plasma, oral PK study): 14.7% | half-life ([12]; mouse, plasma, oral PK study): 2.2 h | Cmax [12, 14]: 456 ng/mL | Tmax [12, 14]: 0.25 h | MRT ([12]; mouse, plasma, oral PK study, read-out: mean residence time): 3.14 h | Kp at 1 h ([12]; mouse, sciatic nerve and plasma, oral, at 1 h, read-out: Sciatic nerve/plasma ratio): 0.4 | clearance ([12]; oral PK study): medium | volume of distribution ([12]; oral PK study): medium
Compound: O=S1(=O)CCc2ccccc2N1Cc1ccc(-c2nnc(C(F)F)o2)cn1 [Compound 1, 1-[[5-[5-(Difluoromethyl)-1,3,4-axadiazol-2-yl)pyridin-2-yl]methyl]-3,4-dihydro-1H-benzo[c][1,2]thiazine-2,2-dioxide]
% inh. at 10 μM versus other HDAC subtypes [3]: < 20% | reported functional activity [13]: 0.76 µM
